Source: US20150031102A1, “METHODS AND COMPOSITIONS FOR ENHANCED PRODUCTION OF BUTANOL BY CLOSTRIDIA” (Butrolix LLC, priority 2012, published 2015)

Assays:
[1] = tested on: C. beijerinckii NCIMB 8052; experiment: Sequential batch cultures of C. beijerinckii NCIMB 8052 grown at 30° C. in YEPG (growth OD600, final pH, ceric ion reactive compounds); type: cell-based, Clostridium beijerinckii
Protocol: (§1) Clostridium acetobutylicum ATCC 824 and C. beijerinckii NCIMB 8052 are available from several commercial microbial culture collections including the American Type Culture Collection (ATCC), Manassas, Va., USA. The strain grown at 30 C or 37 C in YE broth, which contained, per liter: 5.0 g yeast extract, 2.5 g casamino acids, 1.0 g L-asparagine, 0.5 g cysteine·HCl, 56 mg K2HPO4, 56 mg KH2PO4, 82 mg anhydrous MgSO4, 8 mg FeSO4.H2O, 6 mg MnSO4.H2O and 10 g glucose. Alternatively, strains were grown in YEPG broth, which was identical to YE expect that K2HPO4 and KH2PO4 were increased to 145 mg/L each and glucose was increased to 60 g/L. The pH of the media was adjusted to 7.2 using 45% KOH prior to sterilization by autoclaving. Media were solidified by addition of 1.5% Bacteriological Agar, Acumedia Manufacturers, Inc., Lansing, Mich. All cultures were grown in anaerobic conditions using the AnaeroPack System, Mitsubishi Gas Chemical Co., Inc., Japan, and GasPak EZ Gas Generating Sachets, Becton, Dickinson and Co., Sparks, Md. Spore stocks were kept at room temperature on agar-solidified media and were activated by suspending spores in 0.5 mL to 1.0 mL of medium followed by heating for 10 min at 80 C before inoculation into growth medium.
(§2) Growth of bacterial cultures was measured spectrophotometrically using optical density at 600 nm and pH of cell-free culture supernatants was measured using a hand-held Shindengen ISFET pH Meter KS501, Shendengen Electric Manufacturing Co., Ltd., Bannockburn, Ill.
(§3) Total alcohols in cell-free culture supernatants were measured using a modification of a colorimetric method based on ceric ammonium nitrate (Reid and Truelove, 1952). The ceric ion reagent was prepared by adding 1.3 mL of concentrated nitric acid to 40 mL of distilled water, then 10.96 g of ceric ammonium nitrate was dissolved in the dilute nitric acid solution and the solution was brought to a final volume of 50 mL. For the assay, […] of butanol standard or culture supernatant was mixed with […] distilled water in a disposable plastic cuvette followed by addition of […] of the ceric ion reagent. The sample was mixed by inverting the cuvette six times then exactly two minutes later the optical density at 500 nm wavelength was measured. The concentration of total alcohols was determined by comparison with a standard curve prepared by using butanol diluted in distilled water.
Spores of C. beijerinckii NCIMB 8052 were germinated and grown overnight at 30 C under anaerobic conditions in YEPG medium. After about 24 h of growth, […] of the culture was transferred (transfer 1) to each of four flasks that contained 10 mL of YEPG and either had no treatment or were treated with peptide SEQ ID NO: 145 (see Table 8) at 1 nM, 10 nM or 50 nM. Thereafter, […] of each culture was transferred, at the same time, every 24-48 h to 10 mL of fresh YEPG that contained the same peptide treatment or no treatment. Each culture was stopped after 96 hours of incubation and optical density, pH and ceric ion reactive chemicals were measured. Sequential batch culturing was continued through 6 transfers at which point all cultures appeared to be growing to the same extent (Table 12 and FIG. 4).

[2] = tested on: C. beijerinckii NCIMB 8052; experiment: Germination and sequential batch cultures of C. beijerinckii NCIMB 8052 grown at 37° C. (growth OD600, final pH, ceric ion reactive compounds); type: cell-based, Clostridium beijerinckii
Protocol: as §1, §2, §3
Spores of C. beijerinckii NCIMB 8052 were germinated and grown overnight at 37 C under anaerobic conditions in YEPG medium that either contained 50 nM of peptide SEQ ID NO: 145 or no added peptide. After about 24 h of growth, […] of the untreated culture was transferred (transfer 1) to each of two flasks that contained 10 mL of YEPG with either no treatment or with 50 nM peptide SEQ ID NO: 145. At the same time, 10 μL of the culture that was germinated in the presence of peptide SEQ ID NO: 145 was also transferred to 10 mL of YEPG that contained 50 nM of peptide SEQ ID NO: 145. Thereafter, […] of each culture was transferred, at the same time, every 24-48 h to 10 mL of fresh YEPG that contained the same peptide treatment or no treatment. Each culture was stopped after 72 hours of incubation and optical density, pH and ceric ion reactive chemicals were measured. Addition of peptide SEQ ID NO: 145 appeared to have no effect on endpoint measurements of the growth of C. beijerinckii NCIMB 8052 after germination or during sequential transfers of cultures at 37° C. (Table 18 and FIG. 10). All three cultures stopped growing at the second transfer. Likewise, there was no apparent effect on endpoint measurements of pH or ceric ion reactive compounds (Tables 19 and 20 and FIGS. 11 and 12).

[3] = 10 nM, transfer 1, 96 h culture
[4] = 10 nM, transfer 2, 96 h culture
[5] = 10 nM, transfer 3, 96 h culture
[6] = 10 nM, transfer 4, 96 h culture
[7] = 10 nM, transfer 5, 96 h culture
[8] = 10 nM, transfer 6, 96 h culture
[9] = 50 nM, transfer 1, 96 h culture
[10] = 50 nM, transfer 2, 96 h culture
[11] = 50 nM, transfer 3, 96 h culture
[12] = 50 nM, transfer 4, 96 h culture
[13] = 50 nM, transfer 5, 96 h culture
[14] = 50 nM, transfer 6, 96 h culture
[15] = 50 nM added after germination, transfer 1, 72 h culture
[16] = 50 nM added after germination, transfer 2, 72 h culture
[17] = 50-50 (germinated and transferred in 50 nM), transfer 1, 72 h culture
[18] = 50-50 (germinated and transferred in 50 nM), transfer 2, 72 h culture
[19] = 50-50 (spores germinated in 50 nM peptide), transfer 0 (germinated culture), 72 h culture

Substance: IRLIT (Derived from Clostridium beijerinckii SEQ ID NO: 141) [peptide SEQ ID NO: 145]
- Culture degeneration in terms of production of total alcohols [1]: transiently increase culture degeneration
- Final pH ([1]; 1 nM, transfer 1, 96 h culture): 5.3
- Optical density at 600 nm ([1]; 1 nM, transfer 1, 96 h culture): 2.086
- Optical density of ceric ion reactive compounds measured at 500 nm ([1]; 1 nM, transfer 1, 96 h culture): 0.065
- Final pH ([1]; 1 nM, transfer 2, 96 h culture): 5.3
- Optical density at 600 nm ([1]; 1 nM, transfer 2, 96 h culture): 2.086
- Optical density of ceric ion reactive compounds measured at 500 nm ([1]; 1 nM, transfer 2, 96 h culture): 0.032
- Final pH ([1]; 1 nM, transfer 3, 96 h culture): 5.1
- Optical density at 600 nm ([1]; 1 nM, transfer 3, 96 h culture): 2.106
- Optical density of ceric ion reactive compounds measured at 500 nm ([1]; 1 nM, transfer 3, 96 h culture): 0.054
- Final pH ([1]; 1 nM, transfer 4, 96 h culture): 5.3
- Optical density at 600 nm ([1]; 1 nM, transfer 4, 96 h culture): 2.115
- Optical density of ceric ion reactive compounds measured at 500 nm ([1]; 1 nM, transfer 4, 96 h culture): 0.041
- Final pH ([1]; 1 nM, transfer 5, 96 h culture): 5.3
- Optical density at 600 nm ([1]; 1 nM, transfer 5, 96 h culture): 2.090
- Optical density of ceric ion reactive compounds measured at 500 nm ([1]; 1 nM, transfer 5, 96 h culture): 0.061
- Final pH ([1]; 1 nM, transfer 6, 96 h culture): 5.3
- Optical density at 600 nm ([1]; 1 nM, transfer 6, 96 h culture): 2.075
- Optical density of ceric ion reactive compounds measured at 500 nm ([1]; 1 nM, transfer 6, 96 h culture): 0.062
- Final pH [1, 3]: 5.3
- Optical density at 600 nm [1, 3]: 2.080
- Optical density of ceric ion reactive compounds measured at 500 nm [1, 3]: 0.050
- Final pH [1, 4]: 5.3
- Optical density at 600 nm [1, 4]: 2.093
- Optical density of ceric ion reactive compounds measured at 500 nm [1, 4]: 0.008
- Final pH [1, 5]: 5.0
- Optical density at 600 nm [1, 5]: 2.078
- Optical density of ceric ion reactive compounds measured at 500 nm [1, 5]: 0.025
- Final pH [1, 6]: 5.3
- Optical density at 600 nm [1, 6]: 2.108
- Optical density of ceric ion reactive compounds measured at 500 nm [1, 6]: 0.047
- Final pH [1, 7]: 5.4
- Optical density at 600 nm [1, 7]: 2.069
- Optical density of ceric ion reactive compounds measured at 500 nm [1, 7]: 0.065
- Final pH [1, 8]: 5.3
- Optical density at 600 nm [1, 8]: 2.062
- Optical density of ceric ion reactive compounds measured at 500 nm [1, 8]: 0.055
- Final pH [1, 9]: 5.4
- Optical density at 600 nm [1, 9]: 2.102
- Optical density of ceric ion reactive compounds measured at 500 nm [1, 9]: 0.060
- Final pH [1, 10]: 5.3
- Optical density at 600 nm [1, 10]: 2.023
- Optical density of ceric ion reactive compounds measured at 500 nm [1, 10]: 0.023
- Final pH [1, 11]: 5.2
- Optical density at 600 nm [1, 11]: 1.936
- Final pH [1, 12]: 5.3
- Optical density at 600 nm [1, 12]: 2.061
- Optical density of ceric ion reactive compounds measured at 500 nm [1, 12]: 0.039
- Final pH [1, 13]: 5.3
- Optical density at 600 nm [1, 13]: 2.120
- Optical density of ceric ion reactive compounds measured at 500 nm [1, 13]: 0.051
- Final pH [1, 14]: 5.3
- Optical density at 600 nm [1, 14]: 2.046
- Optical density of ceric ion reactive compounds measured at 500 nm [1, 14]: 0.059
- Growth of treated cultures during 96 h of incubation ([1]; 1, 10, 50 nM, dose dependent manner, data not shown): slow the growth
- Final pH ([1]; all cultures (0, 1, 10, 50 nM), after the third transfer): ~5.3
- Number of times that cultures could be transferred ([1]; through six culture transfers, in comparison with an untreated culture): did not affect
- Effect on germination and growth (visual observations through the course of growth) ([2]; 50 nM): repressive effect on germination and growth
- Final pH [2, 15]: 4.1
- Optical density at 600 nm [2, 15]: 1.313
- Optical density of ceric ion reactive compounds measured at 500 nm [2, 15]: −0.026
- Final pH [2, 16]: 6.5
- Optical density at 600 nm [2, 16]: 0.011
- Optical density of ceric ion reactive compounds measured at 500 nm [2, 16]: 0.006
- Effect on endpoint measurements of growth ([2]; 50 nM, after germination or during sequential transfers): no effect
- Final pH [2, 17]: 4.1
- Optical density at 600 nm [2, 17]: 1.420
- Optical density of ceric ion reactive compounds measured at 500 nm [2, 17]: −0.038
- Final pH [2, 18]: 6.6
- Optical density at 600 nm [2, 18]: 0.011
- Optical density of ceric ion reactive compounds measured at 500 nm [2, 18]: 0.002
- Final pH [2, 19]: 4.1
- Optical density at 600 nm [2, 19]: 1.158
- Optical density of ceric ion reactive compounds measured at 500 nm [2, 19]: −0.017
